Patent US6620818B1, “Method for reducing the severity of side effects of chemotherapy and/or radiation therapy” (priority 2001, dated 2003)

target: CDK1 (Homo sapiens, UniProt P06493); assay: Cyclin dependent protein kinase assay, CDK1; format: biochemical; details: inhibitory activity against CDK1, baculovirus-expressed enzyme, [γ-32P]ATP peptide phosphorylation
Sequence (P06493 whole entry, species assumed): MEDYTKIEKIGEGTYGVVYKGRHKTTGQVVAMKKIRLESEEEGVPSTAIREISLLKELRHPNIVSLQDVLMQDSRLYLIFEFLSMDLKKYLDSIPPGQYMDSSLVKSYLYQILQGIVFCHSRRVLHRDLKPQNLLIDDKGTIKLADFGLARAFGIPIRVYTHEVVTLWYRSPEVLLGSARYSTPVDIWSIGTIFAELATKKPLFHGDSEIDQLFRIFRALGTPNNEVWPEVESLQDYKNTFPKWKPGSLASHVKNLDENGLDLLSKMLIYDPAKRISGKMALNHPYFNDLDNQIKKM
Sequence (P14635 whole entry partner, species assumed): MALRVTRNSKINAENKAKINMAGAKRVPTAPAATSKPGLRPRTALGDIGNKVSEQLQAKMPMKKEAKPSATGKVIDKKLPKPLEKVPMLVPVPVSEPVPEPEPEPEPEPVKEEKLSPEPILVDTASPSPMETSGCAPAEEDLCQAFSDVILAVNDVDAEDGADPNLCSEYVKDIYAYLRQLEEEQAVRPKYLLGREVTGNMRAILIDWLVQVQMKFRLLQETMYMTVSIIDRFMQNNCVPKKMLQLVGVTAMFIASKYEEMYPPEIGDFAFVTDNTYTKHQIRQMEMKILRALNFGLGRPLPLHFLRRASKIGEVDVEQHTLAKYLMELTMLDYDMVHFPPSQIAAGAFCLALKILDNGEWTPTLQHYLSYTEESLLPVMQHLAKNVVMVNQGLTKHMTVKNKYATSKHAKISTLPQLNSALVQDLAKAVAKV

| IC50 | SMILES |
| --- | --- |
| 11 to 50 nM | O=C1Nc2ccc3ncsc3c2C1=CNc1ccc(S(=O)(=O)NCc2ccncc2)cc1 [Compound A3] |
| 1 to 10 nM | CC(C)(CO)CNS(=O)(=O)c1ccc(NC=C2C(=O)Nc3ccc4ncsc4c32)cc1 [Compound A1] |
| 51 to 100 nM | O=C1Nc2ccc3ncsc3c2C1=CNc1ccc(S(=O)(=O)Nc2ccccn2)cc1 [Compound A2] |
